Experimental findings from ChEMBL document CHEMBL3045082, “Novel quinazolinone derivatives: synthesis and antimicrobial activity” (2013) are described below.

In brackets after ≈: the same amount, converted by molar mass. Activity calls are given as the source filed them. No cut-off for these calls is given here.

By MIC is commonly meant the lowest concentration that inhibits growth of the organism.

For test [1], the system named is Staphylococcus aureus. Kind of test: Antimicrobial activity against Staphylococcus aureus ATCC 25923 assessed as growth inhibition after 24 to 48 hr by two-fold serial dilution method relative to chloramphenicol. The format is functional.
The subject of test [2] is Staphylococcus aureus. Kind of test: Antimicrobial activity against Staphylococcus aureus ATCC 25923 assessed as growth inhibition after 24 to 48 hr by two-fold serial dilution method. It counts as functional.
The subject of test [3] is Fusarium oxysporum. Briefly: Antimicrobial activity against Fusarium oxysporum assessed as growth inhibition after 24 to 48 hr by two-fold serial dilution method. It counts as functional.
The test system of test [4] is Staphylococcus aureus. Kind of test: Antimicrobial activity against Staphylococcus aureus ATCC 25923 assessed as growth inhibition after 24 to 48 hr by two-fold serial dilution method relative to cephalothin. It counts as functional.
The subject of test [5] is Staphylococcus aureus. Briefly: Antimicrobial activity against Staphylococcus aureus ATCC 25923 assessed as diameter of growth inhibition zone at 1 mg/ml after 24 hr by agar diffusion method. It counts as functional. The following applies: ATCC 25923, 24 h, read-out: DIZ. (Agar diffusion results depend on both activity and mobility in agar.)
The test system of test [6] is Pseudomonas fluorescens. Kind of test: Antimicrobial activity against Pseudomonas fluorescens S 97 assessed as diameter of growth inhibition zone at 1 mg/ml after 24 hr by agar diffusion method. It counts as functional. The following applies: S 97, 24 h, read-out: DIZ.
For test [7], the system named is Streptococcus pyogenes. Kind of test: Antimicrobial activity against Streptococcus pyogenes ATCC 19615 assessed as diameter of growth inhibition zone at 1 mg/ml after 24 hr by agar diffusion method. It counts as functional. The following applies: ATCC 19615, 24 h, read-out: DIZ.
In test [8] the test system is Aspergillus fumigatus. Briefly: Antimicrobial activity against Aspergillus fumigatus assessed as diameter of growth inhibition zone at 1 mg/ml by agar diffusion method. The following applies: read-out: DIZ.
In test [9] the test system is Pseudomonas savastanoi pv. phaseolicola. Briefly: Antimicrobial activity against Pseudomonas syringae pv. phaseolicola GSPB 2828 assessed as diameter of growth inhibition zone at 1 mg/ml after 24 hr by agar diffusion method. As to conditions: GSPB 2828, 24 h, read-out: DIZ. It counts as functional.
For test [10], the system named is Fusarium oxysporum. Kind of test: Antimicrobial activity against Fusarium oxysporum assessed as diameter of growth inhibition zone at 1 mg/ml […] by agar diffusion method. As to conditions: read-out: DIZ. The format is functional.
The subject of test [11] is Pseudomonas savastanoi pv. phaseolicola. Briefly: Antimicrobial activity against Pseudomonas syringae pv. phaseolicola GSPB 2828 assessed as growth inhibition after 24 to 48 hr by two-fold serial dilution method. It counts as functional.
In test [12] the test system is Streptococcus pyogenes. Kind of test: Antimicrobial activity against Streptococcus pyogenes ATCC 19615 assessed as growth inhibition after 24 to 48 hr by two-fold serial dilution method relative to chloramphenicol. The format is functional.
The test system of test [13] is Pseudomonas fluorescens. Kind of test: Antimicrobial activity against Pseudomonas fluorescens S 97 assessed as growth inhibition after 24 to 48 hr by two-fold serial dilution method. The format is functional.
The subject of test [14] is Streptococcus pyogenes. Kind of test: Antimicrobial activity against Streptococcus pyogenes ATCC 19615 assessed as growth inhibition after 24 to 48 hr by two-fold serial dilution method. It counts as functional.
Test [15] relates to Aspergillus fumigatus. Kind of test: Antimicrobial activity against Aspergillus fumigatus assessed as growth inhibition after 24 to 48 hr by two-fold serial dilution method. The format is functional.

`Cc1ccc(S(=O)(=O)Oc2ccc(-c3nc4ccccc4c(=O)n3C3=NNC(=O)C3/N=N/c3ccccc3)cc2)cc1` (stereo not given): the “growth inhibition (GI)” value was determined as 25% in [1] and 50% in test [4]. Also, the MIC in test [2] came to 12.5 µg/mL (≈ 21.6 µM); in test [3], 12.5 µg/mL (≈ 21.6 µM); in test [11], 50 µg/mL (≈ 86.4 µM). Further, the zone of inhibition at 1000 µg/mL came out at 32 mm in [5]; 16 mm in test [6]; 14 mm in [7]; 16 mm in test [8]; 20 mm in [9]; 31 mm in test [10].

With `Cc1ccc(S(=O)(=O)Oc2ccc(-c3nc4ccccc4c(=O)n3-c3nc4ccccc4s3)cc2)cc1`, the “growth inhibition (GI)” value in test [12] and in test [1] was 50% each time. For the same compound, the MIC in test [2] came to 6.25 µg/mL (≈ 11.9 µM); in [13], 50 µg/mL (≈ 95.1 µM); in test [14], 6.25 µg/mL (≈ 11.9 µM); in test [11], 50 µg/mL (≈ 95.1 µM). In addition, the zone of inhibition at 1000 µg/mL worked out at 38 mm in [5]; 20 mm in [6]; 37 mm in [7]; 19 mm in test [9]; 14 mm in test [10]. Moreover, the MIC result in [15] was “inactive”.

For `Cc1ccc(S(=O)(=O)Oc2ccc(-c3nnnn3-c3ccccc3C(=O)O)cc2)cc1`, the “growth inhibition (GI)” value was found to be 25% in test [1] and 50% in test [4]. For the same compound, the MIC in test [2] stood at 12.5 µg/mL (≈ 28.6 µM); in test [3] it was 50 µg/mL (≈ 115 µM); in test [13] it was 50 µg/mL (≈ 115 µM); in test [14], 6.25 µg/mL (≈ 14.3 µM). Further, the zone of inhibition at 1000 µg/mL came to 32 mm in test [5]; 20 mm in test [6]; 38 mm in test [7]; 14 mm in test [9]; 19 mm in test [10]. Also, in test [15], the MIC result was “inactive”.
